The source of these data is publication PMC6897379 (Clinical cancer research : an official journal of the …, 2019).

In one data set the test system is ALL-19 xenograft. The data set is described as follows: ALL-19 xenograft, comparison of dosing schedules. The data set is classed as in vivo, NOD/SCID mice.
The conditions of data set [1]: cited from earlier work.
Data set [2] relates to pediatric solid tumor models. To be noted: cited from earlier work.
Where [3] appears, read: Schedule A, twice daily × 7 days.
The mark [4] stands for this setting: Schedule B, twice daily × 5 days × 3 weeks.
The mark [5] stands for this setting: adults, 50 mg enteric coated tablets.
Setting [6] is: population PK model, 363 adults, 7 single agent trials.

SMILES strings stand for the structures.

Take `COc1cc(Nc2ncc3c(n2)-c2ccc(Cl)cc2C(c2c(F)cccc2OC)=NC3)ccc1C(=O)O` [alisertib, Alisertib]: the “Median EFS Treated” value in the data set with ALL-19 xenograft (Schedule A, 10.4 mg/kg oral gavage twice daily × 7 days) turned out to be 13.6 days. Besides, the “Leukemia progression compared with controls” value with ALL-19 xenograft (Schedule A, serial peripheral blood parameters) is given as “not significantly different from that of controls”. In the data set with ALL-19 xenograft (setting [3]), the “EFS T-C” value worked out at 7.0 days, the “EFS T/C” value is given as 2.0 and the “Median Response Score” value is recorded as “PD2”. Besides, the “Median EFS Treated” value in the data set on ALL-19 xenograft (Schedule B, 10.4 mg/kg oral gavage twice daily × 5 days × 3 weeks) was determined as 31.2 days. Also, in the data set on ALL-19 xenograft (setting [4]), the “EFS T-C” value turned out to be 24.6 days and the “EFS T/C” value stood at 4.7. Moreover, in data set [1] (setting [5]), the “Area under concentration time curve (AUC)” value was 20.9 µM·h and the “Steady state trough concentration (Cmin)” value is on record as “exceeding 1 μM”. Also, in data set [1] (patients receiving 50 mg BID), the “AUC0–24 h” value is 40 µM·h and the peak concentration (Cmax) is 1300 nM. Besides, in data set [1] (setting [6]), the “Apparent clearance (CL/F)” value is 4.25 L/h and the Terminal half-life is 19.3 h. Further, the Average trough concentrations entry in data set [1] (recommended phase 2 dose of 50 mg BID for 7 days) is reported as “exceeded 1 μM”. Besides, in data set [2] (Wilms tumor, rhabdomyosarcoma and osteosarcoma xenograft models), the Event free survival result is “Statistically significant improvement”. In addition, the “Solid tumor models with objective responses” value in data set [2] (pediatric xenograft models) is given as 80%.
